Columns and labels:
[1] = target: 5-hydroxytryptamine receptor 1D (Homo sapiens) (UniProt P28221); conditions: Compound concentration 10.0 uM
[2] = target: Mitogen-activated protein kinase 9 (Homo sapiens) (UniProt P45984)
[3] = target: Bone morphogenetic protein receptor type-1A (Homo sapiens) (UniProt P36894)
[4] = test system: Phosphatidylinositol 4,5-bisphosphate 3-kinase catalytic subunit alpha isoform (Homo sapiens), P42336 [H1047Y]
[5] = test system: Tyrosine-protein kinase ABL1 (Homo sapiens), P00519 [E255K]
[6] = test system: Fibroblast growth factor receptor 3 (Homo sapiens), P22607 [G697C]
[7] = target: Myosin light chain kinase 2, skeletal/cardiac muscle (Homo sapiens) (UniProt Q9H1R3)
[8] = target: T1, Serine/threonine-protein kinase 17A (Homo sapiens) (UniProt Q9UEE5)
T1 sequence (whole entry): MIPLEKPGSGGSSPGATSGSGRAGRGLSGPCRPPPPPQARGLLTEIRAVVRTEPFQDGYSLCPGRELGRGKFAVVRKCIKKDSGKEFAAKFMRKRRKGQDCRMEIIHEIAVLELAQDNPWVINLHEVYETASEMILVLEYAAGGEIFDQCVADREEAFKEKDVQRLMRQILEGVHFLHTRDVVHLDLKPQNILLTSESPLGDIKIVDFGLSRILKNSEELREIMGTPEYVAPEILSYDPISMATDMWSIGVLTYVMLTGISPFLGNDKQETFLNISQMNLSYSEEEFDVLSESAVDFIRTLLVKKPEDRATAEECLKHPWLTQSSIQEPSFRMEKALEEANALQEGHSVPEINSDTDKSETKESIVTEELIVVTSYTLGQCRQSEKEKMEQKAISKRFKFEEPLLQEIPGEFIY

[9] = target: Mast/stem cell growth factor receptor Kit (Homo sapiens) (UniProt P10721)
[10] = target: Casein kinase I isoform gamma-2 (Homo sapiens) (UniProt P78368)
[11] = test system: Tyrosine-protein kinase ABL1 (Homo sapiens), P00519 [T315I]
[12] = target: Tyrosine-protein kinase CSK (Homo sapiens) (UniProt P41240)
[13] = target: T2, Muscle, skeletal receptor tyrosine-protein kinase (Homo sapiens) (UniProt O15146)
T2 sequence (whole entry): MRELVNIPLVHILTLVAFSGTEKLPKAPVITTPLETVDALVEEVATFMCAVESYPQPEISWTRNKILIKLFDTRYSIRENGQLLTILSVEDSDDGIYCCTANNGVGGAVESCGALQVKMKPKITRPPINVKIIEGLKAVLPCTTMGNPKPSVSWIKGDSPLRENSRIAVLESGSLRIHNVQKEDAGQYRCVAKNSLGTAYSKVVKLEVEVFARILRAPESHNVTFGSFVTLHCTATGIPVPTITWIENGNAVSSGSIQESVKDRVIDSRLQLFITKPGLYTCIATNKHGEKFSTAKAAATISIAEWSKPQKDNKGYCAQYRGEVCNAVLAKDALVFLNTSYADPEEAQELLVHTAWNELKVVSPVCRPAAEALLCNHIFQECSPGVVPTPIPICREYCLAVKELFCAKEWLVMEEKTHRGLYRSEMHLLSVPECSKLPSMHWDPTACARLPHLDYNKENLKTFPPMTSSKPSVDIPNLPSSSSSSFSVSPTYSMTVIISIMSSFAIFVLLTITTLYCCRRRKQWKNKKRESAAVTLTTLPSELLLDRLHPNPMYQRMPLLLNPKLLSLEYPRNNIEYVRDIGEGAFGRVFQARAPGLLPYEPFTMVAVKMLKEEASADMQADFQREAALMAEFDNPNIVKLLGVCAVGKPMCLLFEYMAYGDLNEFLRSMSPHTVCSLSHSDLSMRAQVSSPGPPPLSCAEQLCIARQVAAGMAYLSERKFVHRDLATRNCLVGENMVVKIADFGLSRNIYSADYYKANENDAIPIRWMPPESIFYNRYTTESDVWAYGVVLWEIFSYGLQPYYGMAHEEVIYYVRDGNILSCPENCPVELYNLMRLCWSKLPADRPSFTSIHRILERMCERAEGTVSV

[14] = target: Serine/threonine-protein kinase N2 (Homo sapiens) (UniProt Q16513)
[15] = target: Casein kinase I isoform gamma-1 (Homo sapiens) (UniProt Q9HCP0)
[16] = target: Proto-oncogene tyrosine-protein kinase ROS (Homo sapiens) (UniProt P08922)
[17] = target: Cyclin-dependent kinase-like 2 (Homo sapiens) (UniProt Q92772)
[18] = target: RAF proto-oncogene serine/threonine-protein kinase (Homo sapiens) (UniProt P04049)
[19] = target: SNF-related serine/threonine-protein kinase (Homo sapiens) (UniProt Q9NRH2)
[20] = target: Phosphatidylinositol 4,5-bisphosphate 3-kinase catalytic subunit gamma isoform (Homo sapiens) (UniProt P48736)
[21] = target: Serine/threonine-protein kinase Nek4 (Homo sapiens) (UniProt P51957)
[22] = target: cAMP-dependent protein kinase catalytic subunit beta (Homo sapiens) (UniProt P22694)
[23] = target: Mitogen-activated protein kinase 1 (Homo sapiens) (UniProt P28482)
[24] = test system: Mast/stem cell growth factor receptor Kit (Homo sapiens), P10721 [D816H]
[25] = target: Calcium/calmodulin-dependent protein kinase type 1B (Homo sapiens) (UniProt Q6P2M8)
[26] = test system: Epidermal growth factor receptor (Homo sapiens), P00533 [UNDEFINED MUTATION]
[27] = target: 5'-AMP-activated protein kinase catalytic subunit alpha-2 (Homo sapiens) (UniProt P54646)
[28] = Compound concentration 100.0 nM
[29] = Compound concentration 1000.0 nM

Sequence of 5-hydroxytryptamine receptor 1D (Homo sapiens) (P28221 whole entry): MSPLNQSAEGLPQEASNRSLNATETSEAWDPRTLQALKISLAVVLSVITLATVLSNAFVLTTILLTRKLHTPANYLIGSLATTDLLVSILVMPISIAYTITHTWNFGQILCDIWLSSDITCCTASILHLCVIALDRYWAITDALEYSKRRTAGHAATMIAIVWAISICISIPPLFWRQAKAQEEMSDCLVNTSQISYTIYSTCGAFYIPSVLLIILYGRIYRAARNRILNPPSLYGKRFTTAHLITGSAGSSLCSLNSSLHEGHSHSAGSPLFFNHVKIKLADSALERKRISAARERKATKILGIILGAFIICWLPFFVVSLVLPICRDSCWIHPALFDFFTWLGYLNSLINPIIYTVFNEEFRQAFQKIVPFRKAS
Sequence of Bone morphogenetic protein receptor type-1A (Homo sapiens) (P36894 whole entry, canonical isoform): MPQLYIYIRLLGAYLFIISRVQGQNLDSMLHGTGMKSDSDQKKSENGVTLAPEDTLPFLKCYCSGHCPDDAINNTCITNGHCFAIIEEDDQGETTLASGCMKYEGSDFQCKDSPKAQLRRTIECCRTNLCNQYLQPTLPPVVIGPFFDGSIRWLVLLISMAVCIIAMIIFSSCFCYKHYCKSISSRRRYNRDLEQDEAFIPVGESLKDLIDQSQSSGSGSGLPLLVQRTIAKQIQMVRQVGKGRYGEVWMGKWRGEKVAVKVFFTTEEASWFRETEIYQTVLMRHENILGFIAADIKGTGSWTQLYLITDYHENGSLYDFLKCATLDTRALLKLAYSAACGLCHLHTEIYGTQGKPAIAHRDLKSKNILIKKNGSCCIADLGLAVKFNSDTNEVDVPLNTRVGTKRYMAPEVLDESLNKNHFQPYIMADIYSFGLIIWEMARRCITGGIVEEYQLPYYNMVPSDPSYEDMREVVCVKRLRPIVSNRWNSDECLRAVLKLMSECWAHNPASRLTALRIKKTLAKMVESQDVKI
Sequence of Epidermal growth factor receptor (Homo sapiens), P00533 [UNDEFINED MUTATION] (P00533 whole entry, looked up, change not shown): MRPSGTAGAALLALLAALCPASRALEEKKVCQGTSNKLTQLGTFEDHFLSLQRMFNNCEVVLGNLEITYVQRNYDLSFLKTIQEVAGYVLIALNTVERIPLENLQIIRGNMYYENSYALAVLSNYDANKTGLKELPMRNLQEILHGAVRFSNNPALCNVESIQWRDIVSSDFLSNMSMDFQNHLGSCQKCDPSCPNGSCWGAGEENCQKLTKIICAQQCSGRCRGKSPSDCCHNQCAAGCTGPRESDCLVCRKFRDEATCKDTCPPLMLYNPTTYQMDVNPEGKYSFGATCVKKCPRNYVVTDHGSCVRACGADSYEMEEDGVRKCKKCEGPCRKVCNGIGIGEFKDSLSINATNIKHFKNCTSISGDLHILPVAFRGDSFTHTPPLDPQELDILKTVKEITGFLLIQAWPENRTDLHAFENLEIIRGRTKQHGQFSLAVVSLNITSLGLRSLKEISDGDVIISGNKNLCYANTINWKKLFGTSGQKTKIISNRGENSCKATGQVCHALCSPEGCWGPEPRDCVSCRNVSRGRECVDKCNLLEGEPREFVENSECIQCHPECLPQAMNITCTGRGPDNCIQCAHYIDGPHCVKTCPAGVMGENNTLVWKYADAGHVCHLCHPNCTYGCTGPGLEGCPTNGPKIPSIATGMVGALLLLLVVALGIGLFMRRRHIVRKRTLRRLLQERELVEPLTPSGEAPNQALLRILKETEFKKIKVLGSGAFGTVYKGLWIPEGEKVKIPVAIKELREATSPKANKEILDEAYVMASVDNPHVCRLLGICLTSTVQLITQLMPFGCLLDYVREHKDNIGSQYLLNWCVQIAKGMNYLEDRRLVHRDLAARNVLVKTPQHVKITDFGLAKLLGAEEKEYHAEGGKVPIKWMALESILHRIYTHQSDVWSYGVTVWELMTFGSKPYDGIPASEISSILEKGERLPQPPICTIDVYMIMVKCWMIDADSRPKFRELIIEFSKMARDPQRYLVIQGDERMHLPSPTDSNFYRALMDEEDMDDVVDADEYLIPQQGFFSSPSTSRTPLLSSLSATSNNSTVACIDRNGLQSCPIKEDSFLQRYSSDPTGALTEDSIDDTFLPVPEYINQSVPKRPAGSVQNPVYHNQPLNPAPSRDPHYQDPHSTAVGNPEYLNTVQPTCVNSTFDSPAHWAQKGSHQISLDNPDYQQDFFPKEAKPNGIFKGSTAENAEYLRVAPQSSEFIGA
Sequence of Cyclin-dependent kinase-like 2 (Homo sapiens) (Q92772 whole entry): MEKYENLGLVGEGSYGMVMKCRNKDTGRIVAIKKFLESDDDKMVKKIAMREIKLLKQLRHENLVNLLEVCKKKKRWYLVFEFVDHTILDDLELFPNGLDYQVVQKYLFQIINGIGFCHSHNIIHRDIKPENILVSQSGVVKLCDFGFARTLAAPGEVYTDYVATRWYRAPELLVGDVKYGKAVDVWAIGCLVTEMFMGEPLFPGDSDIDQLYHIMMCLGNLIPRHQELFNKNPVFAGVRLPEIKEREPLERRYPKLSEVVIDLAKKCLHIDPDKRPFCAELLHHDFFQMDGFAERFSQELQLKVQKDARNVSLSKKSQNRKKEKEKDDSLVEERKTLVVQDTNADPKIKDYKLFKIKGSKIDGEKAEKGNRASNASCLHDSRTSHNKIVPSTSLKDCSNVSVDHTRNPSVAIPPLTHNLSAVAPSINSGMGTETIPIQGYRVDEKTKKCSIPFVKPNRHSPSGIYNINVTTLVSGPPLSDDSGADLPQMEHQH
Sequence of Serine/threonine-protein kinase N2 (Homo sapiens) (Q16513 whole entry, looked up, canonical isoform): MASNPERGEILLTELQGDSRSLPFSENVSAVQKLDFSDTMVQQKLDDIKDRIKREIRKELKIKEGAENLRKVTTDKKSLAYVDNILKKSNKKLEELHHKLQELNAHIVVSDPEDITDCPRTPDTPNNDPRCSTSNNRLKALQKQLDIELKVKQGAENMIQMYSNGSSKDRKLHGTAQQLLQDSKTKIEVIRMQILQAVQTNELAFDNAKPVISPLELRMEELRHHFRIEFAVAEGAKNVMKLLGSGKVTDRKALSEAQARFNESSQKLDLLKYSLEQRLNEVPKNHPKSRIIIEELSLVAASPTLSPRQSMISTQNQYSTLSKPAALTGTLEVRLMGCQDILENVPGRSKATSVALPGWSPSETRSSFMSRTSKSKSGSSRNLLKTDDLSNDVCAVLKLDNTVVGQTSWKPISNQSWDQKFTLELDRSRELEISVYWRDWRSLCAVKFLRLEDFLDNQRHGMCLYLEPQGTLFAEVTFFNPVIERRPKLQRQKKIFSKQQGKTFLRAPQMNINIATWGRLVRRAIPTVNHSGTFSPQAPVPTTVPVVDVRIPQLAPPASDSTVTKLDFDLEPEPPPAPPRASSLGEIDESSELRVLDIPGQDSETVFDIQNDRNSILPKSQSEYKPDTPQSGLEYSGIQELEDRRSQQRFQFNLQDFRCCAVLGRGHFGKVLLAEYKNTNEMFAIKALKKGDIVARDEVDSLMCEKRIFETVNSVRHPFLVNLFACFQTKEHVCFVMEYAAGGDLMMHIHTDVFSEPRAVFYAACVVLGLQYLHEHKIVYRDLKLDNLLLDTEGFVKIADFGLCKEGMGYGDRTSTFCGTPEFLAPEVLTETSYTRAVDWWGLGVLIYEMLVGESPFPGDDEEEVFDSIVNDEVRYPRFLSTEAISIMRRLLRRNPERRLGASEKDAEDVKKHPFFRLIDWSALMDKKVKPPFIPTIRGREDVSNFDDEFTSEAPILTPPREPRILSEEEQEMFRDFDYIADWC
Sequence of Mitogen-activated protein kinase 9 (Homo sapiens) (P45984 whole entry, looked up): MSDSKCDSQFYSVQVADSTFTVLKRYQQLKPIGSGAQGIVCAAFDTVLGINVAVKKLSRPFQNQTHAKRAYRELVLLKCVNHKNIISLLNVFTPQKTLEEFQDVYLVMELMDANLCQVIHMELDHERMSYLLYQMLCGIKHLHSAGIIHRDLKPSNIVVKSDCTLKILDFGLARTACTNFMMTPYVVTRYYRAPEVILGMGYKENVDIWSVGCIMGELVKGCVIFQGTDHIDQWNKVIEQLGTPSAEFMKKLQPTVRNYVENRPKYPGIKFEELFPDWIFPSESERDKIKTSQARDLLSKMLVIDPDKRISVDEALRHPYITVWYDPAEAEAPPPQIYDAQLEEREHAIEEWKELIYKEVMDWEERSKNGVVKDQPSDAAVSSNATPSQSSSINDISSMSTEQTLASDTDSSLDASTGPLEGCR
Sequence of Casein kinase I isoform gamma-1 (Homo sapiens) (Q9HCP0 whole entry, looked up, canonical isoform): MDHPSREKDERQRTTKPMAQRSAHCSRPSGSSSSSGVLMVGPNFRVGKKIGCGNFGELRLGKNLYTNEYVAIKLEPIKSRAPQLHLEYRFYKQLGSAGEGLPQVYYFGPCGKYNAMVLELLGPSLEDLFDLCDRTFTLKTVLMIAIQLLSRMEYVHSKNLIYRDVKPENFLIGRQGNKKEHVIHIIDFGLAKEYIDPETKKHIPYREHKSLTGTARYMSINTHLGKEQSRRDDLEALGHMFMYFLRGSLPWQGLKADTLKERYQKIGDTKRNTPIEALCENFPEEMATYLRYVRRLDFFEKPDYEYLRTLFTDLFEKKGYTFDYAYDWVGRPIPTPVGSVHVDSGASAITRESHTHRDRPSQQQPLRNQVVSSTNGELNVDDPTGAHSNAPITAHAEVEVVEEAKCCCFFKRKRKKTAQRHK
Sequence of Casein kinase I isoform gamma-2 (Homo sapiens) (P78368 whole entry, looked up, canonical isoform): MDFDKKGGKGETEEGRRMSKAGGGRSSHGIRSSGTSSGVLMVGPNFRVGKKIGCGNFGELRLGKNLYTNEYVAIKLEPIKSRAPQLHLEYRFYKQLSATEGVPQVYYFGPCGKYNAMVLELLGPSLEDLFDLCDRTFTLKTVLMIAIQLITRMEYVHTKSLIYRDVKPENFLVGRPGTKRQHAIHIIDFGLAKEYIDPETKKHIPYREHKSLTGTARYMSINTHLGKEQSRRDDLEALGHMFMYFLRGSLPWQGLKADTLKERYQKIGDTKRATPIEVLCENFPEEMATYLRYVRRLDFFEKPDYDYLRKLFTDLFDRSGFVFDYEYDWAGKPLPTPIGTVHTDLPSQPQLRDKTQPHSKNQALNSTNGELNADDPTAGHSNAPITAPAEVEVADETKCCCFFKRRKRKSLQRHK

Which results are given for `C[C@@H]1CN(c2cc(-c3n[nH]c4ccc(OC5(C)CC5)cc34)ncn2)C[C@H](C)O1` [MLi-2]?
inhibition [1]: -7.94%; residual activity [2, 28]: 72%; residual activity [3, 28]: 100%; residual activity [4, 28]: 76%; residual activity [5, 28]: 66%; residual activity [6, 28]: 86%; residual activity [7, 28]: 91%; residual activity [8, 28]: 100%; residual activity [9, 28]: 82%; residual activity [10, 28]: 100%; residual activity [11, 28]: 86%; residual activity [12, 28]: 100%; residual activity [13, 28]: 56%; residual activity [14, 28]: 89%; residual activity [15, 28]: 100%; residual activity [16, 28]: 100%; residual activity [17, 28]: 100%; residual activity [18, 28]: 100%; residual activity [19, 28]: 94%; residual activity [20, 28]: 72%; residual activity [21, 28]: 84%; residual activity [22, 28]: 91%; residual activity [23, 28]: 98%; residual activity [24, 28]: 67%; residual activity [25, 28]: 67%; residual activity [26, 28]: 43%; residual activity [27, 28]: 100%

How did the inhibition [1] turn out when `C[C@@H]1CN(c2cc(-c3nn(C)c4ccc(OC5(C)CC5)cc34)ncn2)C[C@H](C)O1` [MLi-2-NC] was run?
The inhibition was 4.11%.

And the residual activity [2, 29]?
The residual activity was 78%.

And the residual activity [3, 29]?
Its residual activity is 85%.

And the residual activity [4, 29]?
The residual activity was 100%.

What about the residual activity [5, 29] of the same compound?
Its residual activity is 79%.

And the residual activity [6, 29]?
The residual activity was 100%.

What about the residual activity [7, 29] of the same compound?
The residual activity was 87%.

What about the residual activity [8, 29] of the same compound?
Its residual activity is 81%.

What about the residual activity [9, 29] of the same compound?
The residual activity was 100%.

What about the residual activity [10, 29] of the same compound?
Its residual activity is 100%.

And the residual activity [11, 29]?
The residual activity was 74%.

What about the residual activity [12, 29] of the same compound?
Its residual activity is 100%.

And the residual activity [13, 29]?
Its residual activity is 92%.

What about the residual activity [14, 29] of the same compound?
Its residual activity is 100%.

What about the residual activity [15, 29] of the same compound?
The residual activity was 89%.

And the residual activity [16, 29]?
The residual activity was 100%.

And the residual activity [17, 29]?
Its residual activity is 100%.

And the residual activity [18, 29]?
Its residual activity is 100%.

What about the residual activity [19, 29] of the same compound?
Its residual activity is 92%.

What about the residual activity [20, 29] of the same compound?
Its residual activity is 100%.

And the residual activity [21, 29]?
The residual activity was 60%.

What about the residual activity [22, 29] of the same compound?
The residual activity was 100%.

And the residual activity [23, 29]?
The residual activity was 100%.

What about the residual activity [24, 29] of the same compound?
Its residual activity is 64%.

And the residual activity [25, 29]?
The residual activity was 100%.

What about the residual activity [26, 29] of the same compound?
The residual activity was 74%.

And the residual activity [27, 29]?
The residual activity was 100%.
